Data on 13 compounds can be found in patent publication US8597688B2, “Pesticidal mixtures comprising isoxazoline compounds II” (BASF SE, priority 2008, dated 2013).

Where two headings read alike, the source gives them in different places.

Common to all, as to format: cell-based
The subject of one test is Pyricularia oryzae. The settings on record: single active compound, Pyrior microtiter test.
Another test has as its system Phytophthora infestans. The settings on record: day 7.
Another test concerns Botrytis cinerea. As to the kind of experiment: Activity against the grey mold Botrytis cinerea in the microtiterplate test (Botrci). As to conditions: 7 days.
In the next test the test system is Septoria tritici. As to the kind of experiment: Activity against leaf blotch on wheat caused by Septoria tritici (Septtr), microtiter test. The settings on record: day 7.

As to `COC(=O)N(OC)c1ccccc1COc1ccn(-c2ccc(Cl)cc2)n1` [Pyraclostrobin, methyl N-{2-[1-(4-chlorophenyl)-1H-pyrazol-3-yloxymethyl]phenyl}(N-methoxy)carbamate, reference compound], the Observed efficacy in the test with Pyricularia oryzae (concentration 0.004 ppm) is 26; in the test with Phytophthora infestans (0.016 ppm), 13%.

On to `CC1(C(=O)Nc2ccc(O)c(Cl)c2Cl)CCCCC1` [Fenhexamid, N-(2,3-dichloro-4-hydroxyphenyl)-1-methylcyclohexanecarboxamide, reference compound], for which the Observed efficacy in the test with Botrytis cinerea (0.016 ppm) came out at 51%.

As for `CC(C)OC(=O)N[C@H](C(=O)N[C@H](C)c1nc2ccc(F)cc2s1)C(C)C` [Fubenthiavalicarb (Benthivalicarb), isopropyl {(S)-1-[(1R)-1-(6-fluorobenzothiazol-2-yl)-ethylcarbamoyl]-2-methylpropyl}carbamate, reference compound], the Observed efficacy in the test with Septoria tritici (4 ppm) is 0%.

`O=C(CNC(=O)c1ccc(C2=NOC(c3cc(Cl)cc(Cl)c3)(C(F)(F)F)C2)c2ccccc12)NCC(F)(F)F` (stereo not drawn) [C.I.402]: the Observed efficacy with Septoria tritici (4 ppm) was 2%; in the test on Septoria tritici (63 ppm), 0%; in the test with Pyricularia oryzae (concentration 1 ppm), 6; in the test with Pyricularia oryzae (concentration 4 ppm) it was 35.

Turning to `CO/C=C(/C(=O)OC)c1ccccc1COc1cccc(C(F)(F)F)n1` [Picoxystrobin], the Observed efficacy with Pyricularia oryzae (concentration 0.063 ppm) is recorded as 60.

Turning to `COC(=O)Nc1nc2ccccc2[nH]1` [Carbendazim], the Observed efficacy in the test with Pyricularia oryzae (concentration 0.25 ppm) was 18.

In the test with Pyricularia oryzae (concentration 0.063 ppm), `CON=C(C(=O)OC)c1ccccc1CON=C(C)c1cccc(C(F)(F)F)c1` [Trifloxystrobin] came in with an Observed efficacy of 32.

For Mancozeb, in the test on Pyricularia oryzae (concentration 1 ppm), the Observed efficacy came to 36.

The compound `Fc1ccc([C@]2(Cn3cncn3)O[C@H]2c2ccccc2Cl)cc1` [Epoxiconazol] showed an Observed efficacy with Pyricularia oryzae (concentration 0.063 ppm) of 0.

`CC(C)NC(=O)N1CC(=O)N(c2cc(Cl)cc(Cl)c2)C1=O` [Iprodion] displayed an Observed efficacy in the test with Pyricularia oryzae (concentration 0.24 ppm) of 4.

`Cc1cc(C2=NOC(c3cc(Cl)cc(Cl)c3)(C(F)(F)F)C2)ccc1C(=O)NCC(=O)NCC(F)(F)F` (stereo not drawn) [C.I.240]: the Observed efficacy with Septoria tritici (4 ppm) is recorded as 0%; with Botrytis cinerea (0.063 ppm), 0%; with Botrytis cinerea (16 ppm) it was 18%; in the test on Pyricularia oryzae (concentration 1 ppm), 0; in the test on Pyricularia oryzae (concentration 4 ppm) it was 11; with Phytophthora infestans (4 ppm) it was 6%. Also, the Observed efficacy in the test with Phytophthora infestans (16 ppm) came out at 15%.

Compound `CO/N=C(/C1=NOCCO1)c1ccccc1Oc1ncnc(Oc2ccccc2Cl)c1F` [Fluoxastrobin, (E)-{2-[6-(2-chlorophenoxy)-5-fluoropyrimidin-4-yloxy]phenyl}(5,6-dihydro-1,4,2-dioxazin-3-yl)methanone O-methyloxime, reference compound] gave an Observed efficacy in the test on Septoria tritici (0.25 ppm) of 68%.

As for `N#Cc1c(Cl)c(Cl)c(Cl)c(C#N)c1Cl` [Chlorothalonil, 2,4,5,6-tetrachloroisophthalonitrile, reference compound], the Observed efficacy with Botrytis cinerea (1 ppm) is 43%; in the test on Phytophthora infestans (1 ppm) it was 53%.
